What was measured:
[1] = test system: A549; assay: Cytotoxicity against human A549 cells assessed as cell growth inhibition measured after 24 hrs by MTT assay; assay type: functional, cell-based; settings: A549, 24 h
[2] = test system: HeLa; assay: Cytotoxicity against human HeLa cells assessed as cell growth inhibition measured after 24 hrs by MTT assay; assay type: functional, cell-based
[3] = test system: DU-145; assay: Cytotoxicity against human DU145 cells assessed as cell growth inhibition measured after 24 hrs by MTT assay; assay type: functional, cell-based; settings: DU-145, 24 h
[4] = test system: COLO 205; assay: Cytotoxicity against human COLO205 cells assessed as cell growth inhibition measured after 24 hrs by MTT assay; assay type: functional, cell-based; settings: COLO 205, 24 h
[5] = test system: SK-OV-3; assay: Cytotoxicity against human SKOV3 cells assessed as cell growth inhibition measured after 24 hrs by MTT assay; assay type: functional, cell-based; settings: SK-OV-3, 24 h
[6] = test system: DU-145; assay: Cell cycle arrest in human DU145 cells assessed as accumulation at G0/G1 phase at 5.2 uM measured after 24 hrs by RNase A/propidium iodide staining based flow cytometry analysis (reference value: 51.75 %); assay type: functional
[7] = test system: DU-145; assay: Induction of apoptosis in human DU145 cells assessed as live cells at 5.2 uM measured after 24 hrs by Annexin-V/FITC and propidium iodide staining based flow cytometry (reference value: 95.62 %); assay type: functional
[8] = test system: DU-145; assay: Induction of apoptosis in human DU145 cells assessed as early apoptotic cells at 5.2 uM measured after 24 hrs by Annexin-V/FITC and propidium iodide staining based flow cytometry (reference value: 0.25 %); assay type: functional
[9] = test system: DU-145; assay: Induction of apoptosis in human DU145 cells assessed as late apoptotic cells at 5.2 uM measured after 24 hrs by Annexin-V/FITC and propidium iodide staining based flow cytometry (reference value: 1.49 %); assay type: functional
[10] = test system: DU-145; assay: Induction of apoptosis in human DU145 cells assessed as necrotic cells at 5.2 uM measured after 24 hrs by Annexin-V/FITC and propidium iodide staining based flow cytometry (reference value: 2.64 %); assay type: functional
[11] = test system: DU-145; assay: Induction of apoptosis in human DU145 cells assessed as live cells at 8 uM measured after 24 hrs by Annexin-V/FITC and propidium iodide staining based flow cytometry (reference value: 95.62 %); assay type: functional
[12] = test system: DU-145; assay: Induction of apoptosis in human DU145 cells assessed as early apoptotic cells at 8 uM measured after 24 hrs by Annexin-V/FITC and propidium iodide staining based flow cytometry (reference value: 0.25 %); assay type: functional
[13] = test system: DU-145; assay: Induction of apoptosis in human DU145 cells assessed as late apoptotic cells at 8 uM measured after 24 hrs by Annexin-V/FITC and propidium iodide staining based flow cytometry (reference value: 1.49 %); assay type: functional
[14] = test system: DU-145; assay: Induction of apoptosis in human DU145 cells assessed as necrotic cells at 8 uM measured after 24 hrs by Annexin-V/FITC and propidium iodide staining based flow cytometry (reference value: 2.64 %); assay type: functional

Structure (SMILES): C/C=C(\C)C(=O)O[C@@H]1[C@]2(OC(=O)CCCC)C=C3C4=CC(=O)O[C@@H](c5ccoc5)[C@]4(C)CC[C@@H]3[C@@]3(C)[C@H](C[C@]1(C)[C@H]3[C@@H](O)C(=O)OC)O2
- IC50 [1]: 9.4 µM
- IC50 [2]: > 100 µM
- IC50 [3]: 5.2 µM
- IC50 [4]: 4 µM
- IC50 [5]: 13.7 µM
- Activity [6]: 42.93%
- Activity [7]: 83.45%
- Activity [8]: 1.74%
- Activity [9]: 10.35%
- Activity [10]: 4.46%
- Activity [11]: 85.39%
- Activity [12]: 1.39%
- Activity [13]: 8.11%
- Activity [14]: 5.11%

Source: ChEMBL document CHEMBL4414608, “Secophragmalin-Type Limonoids from Trichilia connaroides: Isolation, Semisynthesis, and Their Cytotoxic Activities” (J Nat Prod, 2019)
